Measured values taken from the NIST ThermoML archive (doi:10.1021/je700152c).

Test: molar heat capacity at saturation pressure

CCCCn1cc[n+](C)c1.Cc1ccc(S(=O)(=O)[O-])cc1 [1-butyl-3-methylimidazolium tosylate]
Settings	molar heat capacity [J/K/mol]
283.38 K, Crystal 1	400.74
283.57 K, Crystal 1	401.36
284.36 K, Metastable crystal	414.71
285.22 K, Crystal 1	405.4
285.23 K, Crystal 1	405.09
285.41 K, Crystal 1	405.71
286.18 K, Metastable crystal	418.44
287.05 K, Crystal 1	409.74
287.07 K, Crystal 1	409.12
287.24 K, Crystal 1	410.37
288 K, Metastable crystal	422.47
288.87 K, Crystal 1	414.71
288.9 K, Crystal 1	414.09
289.06 K, Crystal 1	415.64
289.81 K, Metastable crystal	426.82
290.68 K, Crystal 1	419.06
290.72 K, Crystal 1	418.75
290.87 K, Crystal 1	419.99
291.62 K, Metastable crystal	431.16
292.49 K, Crystal 1	423.71
292.53 K, Crystal 1	423.4
292.67 K, Crystal 1	424.02
293.42 K, Metastable crystal	435.51
294.29 K, Crystal 1	427.13
294.33 K, Crystal 1	428.06
294.47 K, Crystal 1	427.44
295.21 K, Metastable crystal	439.86
296.09 K, Crystal 1	431.47
296.13 K, Crystal 1	432.72
296.27 K, Crystal 1	432.09
296.99 K, Metastable crystal	445.13
297.87 K, Crystal 1	436.13
297.92 K, Crystal 1	437.06
298.05 K, Crystal 1	436.75
298.77 K, Metastable crystal	450.1
299.66 K, Crystal 1	440.79
299.71 K, Crystal 1	442.65
299.83 K, Crystal 1	442.03
300.21 K, Crystal 1	440.48
300.54 K, Metastable crystal	455.38
301.54 K, Crystal 1	446.68
301.6 K, Crystal 1	447.93
301.72 K, Crystal 1	447.62
302.1 K, Crystal 1	445.44
302.41 K, Metastable crystal	461.89
303.54 K, Crystal 1	452.58
303.6 K, Crystal 1	453.2
303.71 K, Crystal 1	453.82
304.1 K, Crystal 1	451.03
304.39 K, Metastable crystal	469.03
305.52 K, Crystal 1	458.79
305.59 K, Crystal 1	460.34
305.69 K, Crystal 1	460.03
306.09 K, Crystal 1	457.24
306.36 K, Metastable crystal	476.79
307.5 K, Crystal 1	465.93
307.57 K, Crystal 1	467.79
307.67 K, Crystal 1	467.17
308.07 K, Crystal 1	463.76
308.32 K, Metastable crystal	485.8
309.47 K, Crystal 1	473.69
309.54 K, Crystal 1	474.93
309.64 K, Crystal 1	475.24
310.04 K, Crystal 1	471.52
310.26 K, Metastable crystal	496.04
311.42 K, Crystal 1	482.69
311.49 K, Crystal 1	484.55
311.59 K, Crystal 1	484.24
311.76 K, Metastable crystal	501.63
311.99 K, Crystal 1	479.59
313.37 K, Crystal 1	492.63
313.44 K, Crystal 1	494.8
313.53 K, Crystal 1	493.56
313.67 K, Metastable crystal	515.91
313.94 K, Crystal 1	489.21
315.3 K, Crystal 1	503.49
315.37 K, Crystal 1	505.97
315.46 K, Crystal 1	503.18
315.56 K, Metastable crystal	532.05
315.87 K, Crystal 1	499.45
317.22 K, Crystal 1	514.97
317.29 K, Crystal 1	518.39
